Experimental findings from EP4574835A1, “AMORPHOUS FORM OF KETOAMIDE DERIVATIVE, AND PREPARATION METHOD THEREFOR” (Guangdong Raynovent Biotech Co., Ltd., priority 2022, dated 2024) are described below.

The nature of the series: Pharmacokinetic model of mouse. It is filed as in vivo.

As for `O=C(NC1CCCC1)C(=O)[C@H](C[C@@H]1CCNC1=O)NC(=O)[C@@H]1[C@H]2CCC[C@H]2CN1C(=O)[C@@H](NC(=O)C(F)(F)F)C1CCCCC1` [Compound of Formula (I)], the clearance rate result is recorded as “lower” and the half-life entry is “longer”.
